# Data taken from BindingDB's records for patent US20230271968 (Beijing Tide Pharmaceutical, 2023).
# Target: Serine/threonine-protein kinase ATR (Homo sapiens, UniProt Q13535)
# Experiment: Assay of ATR Kinase Activity
# Experimental: The amount of phosphorylated protein was determined by time-resolved fluorescence in this assay. The amount of phosphorylated protein was detected by anti-p53-phospho-(serine 15)-K-specific antibody (Cisbio, art. No.: 61GSTDLA) and d2 labeled anti-GST antibody (Cisbio, art. No. 61P08KAE). […] The reagents used above were purchased from Sigma or Invitrogen, except for those whose manufacturers were mentioned.
# Serine/threonine-protein kinase ATR, sequence (Q13535 whole entry): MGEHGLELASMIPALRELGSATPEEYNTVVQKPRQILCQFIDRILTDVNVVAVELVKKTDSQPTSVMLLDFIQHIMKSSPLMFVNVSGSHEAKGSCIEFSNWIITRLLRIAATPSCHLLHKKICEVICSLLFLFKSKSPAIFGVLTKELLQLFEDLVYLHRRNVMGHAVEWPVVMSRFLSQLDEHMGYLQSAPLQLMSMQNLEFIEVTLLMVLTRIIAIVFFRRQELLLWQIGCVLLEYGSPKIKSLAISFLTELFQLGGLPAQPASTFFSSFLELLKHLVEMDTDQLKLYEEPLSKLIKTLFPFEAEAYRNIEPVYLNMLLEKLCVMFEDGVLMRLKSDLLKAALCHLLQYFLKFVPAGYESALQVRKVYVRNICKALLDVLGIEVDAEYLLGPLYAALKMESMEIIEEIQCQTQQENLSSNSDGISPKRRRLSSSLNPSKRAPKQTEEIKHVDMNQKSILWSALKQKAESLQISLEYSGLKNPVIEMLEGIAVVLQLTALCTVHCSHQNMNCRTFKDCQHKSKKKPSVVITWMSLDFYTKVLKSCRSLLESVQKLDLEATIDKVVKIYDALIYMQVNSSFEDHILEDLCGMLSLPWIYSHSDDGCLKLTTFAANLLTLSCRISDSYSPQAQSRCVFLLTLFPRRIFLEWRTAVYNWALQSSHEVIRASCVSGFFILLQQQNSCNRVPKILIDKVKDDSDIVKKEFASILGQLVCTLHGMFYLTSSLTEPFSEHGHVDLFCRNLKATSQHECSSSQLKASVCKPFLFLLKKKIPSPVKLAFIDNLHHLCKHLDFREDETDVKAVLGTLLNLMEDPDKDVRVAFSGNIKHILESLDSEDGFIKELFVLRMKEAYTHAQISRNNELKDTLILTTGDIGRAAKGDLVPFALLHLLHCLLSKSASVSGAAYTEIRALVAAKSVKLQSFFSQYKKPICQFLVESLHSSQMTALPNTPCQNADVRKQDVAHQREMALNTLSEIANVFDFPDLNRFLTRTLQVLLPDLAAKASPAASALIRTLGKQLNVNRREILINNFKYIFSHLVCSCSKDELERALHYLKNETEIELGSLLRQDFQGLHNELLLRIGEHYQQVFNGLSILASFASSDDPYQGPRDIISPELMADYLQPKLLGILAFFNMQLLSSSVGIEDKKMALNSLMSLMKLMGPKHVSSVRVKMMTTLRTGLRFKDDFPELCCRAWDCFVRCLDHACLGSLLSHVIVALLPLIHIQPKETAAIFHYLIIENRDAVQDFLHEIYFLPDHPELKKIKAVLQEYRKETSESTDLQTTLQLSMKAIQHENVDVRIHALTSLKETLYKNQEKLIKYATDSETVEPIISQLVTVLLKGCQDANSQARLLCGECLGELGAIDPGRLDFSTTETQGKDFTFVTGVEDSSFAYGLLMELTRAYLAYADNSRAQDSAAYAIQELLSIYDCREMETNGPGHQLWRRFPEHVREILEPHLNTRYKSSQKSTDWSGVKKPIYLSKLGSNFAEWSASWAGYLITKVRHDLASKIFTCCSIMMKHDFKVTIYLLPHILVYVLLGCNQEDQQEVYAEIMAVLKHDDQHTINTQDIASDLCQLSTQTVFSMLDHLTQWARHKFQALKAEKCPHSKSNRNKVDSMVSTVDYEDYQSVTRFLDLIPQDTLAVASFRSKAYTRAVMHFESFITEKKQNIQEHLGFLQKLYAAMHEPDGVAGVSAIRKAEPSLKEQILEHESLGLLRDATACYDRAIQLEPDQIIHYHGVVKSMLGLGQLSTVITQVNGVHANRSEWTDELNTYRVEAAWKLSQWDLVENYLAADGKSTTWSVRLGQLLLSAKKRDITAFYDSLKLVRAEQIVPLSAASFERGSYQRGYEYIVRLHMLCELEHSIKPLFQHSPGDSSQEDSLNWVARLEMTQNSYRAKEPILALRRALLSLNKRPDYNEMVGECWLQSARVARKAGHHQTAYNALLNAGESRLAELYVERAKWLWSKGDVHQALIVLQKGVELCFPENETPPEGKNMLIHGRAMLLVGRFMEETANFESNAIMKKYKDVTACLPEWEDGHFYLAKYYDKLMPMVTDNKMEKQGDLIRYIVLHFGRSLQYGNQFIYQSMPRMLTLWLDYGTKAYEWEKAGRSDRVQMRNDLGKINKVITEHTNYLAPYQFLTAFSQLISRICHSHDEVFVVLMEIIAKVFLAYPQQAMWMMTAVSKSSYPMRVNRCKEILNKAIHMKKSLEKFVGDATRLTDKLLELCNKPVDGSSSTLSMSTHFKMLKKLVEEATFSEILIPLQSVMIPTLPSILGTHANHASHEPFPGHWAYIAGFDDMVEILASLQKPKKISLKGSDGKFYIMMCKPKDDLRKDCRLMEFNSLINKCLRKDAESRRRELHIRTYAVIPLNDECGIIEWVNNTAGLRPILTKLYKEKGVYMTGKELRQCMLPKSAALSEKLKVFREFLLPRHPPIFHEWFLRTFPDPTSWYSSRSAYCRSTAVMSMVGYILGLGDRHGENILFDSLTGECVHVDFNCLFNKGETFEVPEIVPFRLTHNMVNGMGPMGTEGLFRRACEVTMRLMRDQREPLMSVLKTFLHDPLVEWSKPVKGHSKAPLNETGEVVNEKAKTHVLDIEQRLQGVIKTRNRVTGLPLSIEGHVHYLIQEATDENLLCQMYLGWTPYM
structure (smiles),measurement,value
"Cc1nn(-c2cncc(C#N)c2)c(C)c1-c1cc(N2CCOC[C@H]2C)nc2c(-c3ccn[nH]3)cnn12 [US20230271968, Compound A11]",IC50,9 nM
